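Method: 48-hour compound exposure of cells in 96-well plates, five concentrations, linear interpolation of endpoints. GI50 marks 50% less growth. The concentration for full growth arrest is given as TGI.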
Legend:
Test in all cases: DTP human tumour cell line panel, 48 h
[1] = tested on: SK-OV-3 ovarian
[2] = tested on: T-47D breast
[3] = tested on: MDA-MB-231 breast
[4] = tested on: RXF 393 renal
[5] = tested on: SK-MEL-2 melanoma
[6] = tested on: SR leukemia

Row | Compound | TGI [1] | TGI [2] | TGI [3] | TGI [4] | TGI [5] | GI50 [6] | GI50 [1] | GI50 [2] | GI50 [3] | GI50 [4] | GI50 [5] | TGI [6]
1 | COC(=O)C(=O)C(C(=O)C(=O)Nc1nc(=S)[nH][nH]1)c1nc2ccc([N+](=O)[O-])cc2[nH]c1=O (stereo not drawn) | > 100 µM | > 100 µM | > 100 µM | > 100 µM | > 100 µM |  |  |  |  |  |  | 
2 | NC(=S)N=Nc1c(O)[nH]c2ccccc12 | 431 µM | 617 µM | 385 µM | 262 µM | > 1000 µM | 98.2 µM | 209 µM | 184 µM | 158 µM | 134 µM | 296 µM | 
3 | COc1ccc2c(c1)O/C(=C\c1ccc([N+](=O)[O-])s1)C2=O | > 62.7 µM |  |  | > 20.8 µM | > 27 µM | 0.12 µM | > 22.7 µM |  |  | 1.85 µM |  | 0.759 µM
4 | COC(=O)C1=C(O)C(C(=O)OC)[C@@]2(O)[C@@H](C(=O)OC)C(c3ccccc3Cl)C[C@@H]1[C@@H]2C(=O)OC (stereo partly drawn) | 63.4 µM | 40.3 µM | 20.7 µM | 35.4 µM | 17.7 µM |  | 23.6 µM | 11.6 µM | 6.56 µM | 4.37 µM | 3.62 µM | 
5 | O=S1(=O)C=C(c2ccccc2)C(c2ccccc2)=C1 | 20.2 µM |  | 3.09 µM | 3 µM |  | 2.8 µM | 7.81 µM |  | 1.62 µM | 1.62 µM |  | 13.9 µM
6 | N#CC1C(=O)NC(=O)C(C#N)C1c1ccc(Cl)c(Cl)c1 (stereo not drawn) | > 100 µM | > 100 µM | > 100 µM | 50.5 µM | > 100 µM |  |  |  |  |  |  | 41.6 µM
7 | O=C(Nc1ccc(N2CCNCC2)cn1)c1[nH]ncc1Nc1ncnc2sc3c(c12)CCC3 | 34.8 µM | 4.27 µM | 3.28 µM |  | 35.1 µM | 0.246 µM | 16.3 µM | 1.65 µM | 1.69 µM |  | 13.6 µM | 0.872 µM
8 | NC(N)=N/N=C/c1ccc(Br)cc1 | 30.5 µM | 23.7 µM | 14 µM | 12.3 µM | 26.4 µM | 1.84 µM | 6.75 µM | 5.57 µM | 4.49 µM | 3.68 µM | 12 µM | 47 µM
9 | COC(=O)CCc1c(/C=C2\N=C(c3ccc[nH]3)C=C2OC)[nH]c(C)c1C(=O)OCc1ccccc1 | 12.6 µM | 1.45 µM | 1.57 µM | 3.38 µM | 1.24 µM | 0.185 µM | 1.67 µM | 0.235 µM | 0.17 µM | 0.549 µM | 0.304 µM | 1.72 µM
10 | O=C1C=C(OCC=C(Cl)Cl)C(=O)c2ccccc21 | > 100 µM | > 29.6 µM | 17.7 µM | 11.1 µM |  |  | > 100 µM | 2.4 µM | 3.11 µM | 2.46 µM | 2.34 µM | > 20.4 µM
11 | CCCCCCCCCCCCCCCC(N)c1ccccc1 (stereo not drawn) | 2.92 µM | 3.08 µM | 2.95 µM | 3.41 µM | 3.35 µM | 0.558 µM | 1.58 µM | 1.56 µM | 1.35 µM | 1.71 µM | 1.68 µM | 2.43 µM
12 | COc1cc2c3c(n(CCCN4CCN(CCO)CC4)c(=O)c2cc1OC)-c1cc2c(cc1C3=O)OCO2 | > 78.9 µM | > 100 µM | 18.3 µM | 30.9 µM | > 100 µM |  | 21.1 µM | > 100 µM | 4.97 µM | 13.4 µM | > 100 µM | 1.34 µM
13 | O=C1/C(=C/c2cccc(F)c2)CN(C(=O)C(Cl)Cl)C/C1=C\c1cccc(F)c1 | 1.79 µM | 1.76 µM | 0.671 µM | 0.397 µM | 1.27 µM | 0.0296 µM | 0.6 µM | 0.317 µM | 0.248 µM | 0.194 µM | 0.343 µM | 0.465 µM
14 | C[C@H](c1ccc(Cl)cc1[N+](=O)[O-])N1C(=O)c2cc(I)ccc2NC(=O)[C@H]1c1ccc(Cl)cc1 | > 100 µM | > 100 µM | > 100 µM | > 100 µM | > 100 µM | 28 µM | > 100 µM | 5.37 µM | 3.46 µM | 9.07 µM | > 100 µM | > 100 µM
